Patent US6113896A, “Pharmaceutical compositions containing ecotin and homologs thereof” (priority 1994, dated 2000)

Tests used:
human FXa = assay: Equilibrium inhibition constant with Factor Xa (tight-binding analysis); assay type: biochemical; settings: compared with wild type
Experimental: Determination of Equilibrium Inhibition Constants Apparent Ki values (Ki *) for the inhibition of the enzymes tested by ecotin and mutants were measured as follows. All reactions were performed at 25° C. Stock solutions of trypsin were quantitated by active site burst titration with MUGB as previously described (Jameson, G. W. et al., Biochem. J. 131:107-117 [1973]) using a Fluoroskan II plate reader at excitation wavelength of 355 nm and emission wavelength of 460 nm. Data was collected on a Macintosh SE20 using either Delta Soft II Fl v3.31 software (BioMetallics). Active site titrated trypsin was then used to quantitate ecotin active sites using BAPA as the substrate; a stoichiometry of 1:1 was assumed (Chung, C. H. et al., supra). Factor Xa, Factor XIIa, plasma kallikrein, or HLE were then quantitated by active site titration using ecotin as a standard, again assuming 1:1 stoichiometry. In addition, the concentration of HLE was quantitated by methods previously described using a calibrated stock of α1 -proteinase inhibitor to titrate the HLE active sites (Beatty, K. et al., J. Biol. Chem. 255:3931-3934 [1980]); the same HLE active site concentration was determined using both ecotin and α1 -proteinase inhibitor. The substate for FXa was Spectrozyme fXa (0.5 mM); the substrate for FXIIa (0.5 mM) and plasma kallikrein was S2302 (0.5 mM); the substrate for HLE was MeOSuc-Ala-Ala-Pro-Val-pNA (0.4 mM). There was good agreement upon comparison of the protein concentrations determined by amino acid analysis, Bradford analysis (Bradford, M. M. Anal. Biochem. 72:248-254 (1976) or active site titrations for trypsin, ecotin, FXa, FXIIa, plasma kallikrein, and HLE.
Therefore, apparent equilibrium dissociation values (Ki *) were determined using methods derived for tight-binding inhibitors (Morrison, J. F. Biochim. Biophys. Acta 185:269-286 [1969]), (Bieth, J. in Proteinase Inhibitors (Fritz, H., Tschesche, H., Greene, L. J. and Truscheit, E., Ed.) pp 463-469, Springer-Verlag, New York [1974]). Data were fit by nonlinear regression analysis to equation 1 and values for Ki * were determined. [formula] where α is the fractional activity (steady-state inhibited rate divided by the uninhibited rate), [Eo ] is the total enzyme concentration, and [Io ] is the total ecotin concentration. Since the inhibitor and substrate compete for the same site, the true Ki value is related to Ki^* by the expression Ki =Ki */(1+[S]/Km), where Km is the Michaelis constant for the substrate, and [S] is the substrate concentration.
a. […] Following a 1 hour incubation at room temperature to reach equilibration of the enzyme.cndot.inhibitor complex, 20 μl of 5 mM Spectrozyme fXa was added, and the steady-state rate of product formation measured by monitoring the change in absorbance at 405 nm. The Km for Spectrozyme fXa with FXa under these conditions was determined to be 0.23 mM by linear regression analysis of Lineweaver-Burke plots.

FXa = assay: Ecotin·FXa dissociation rate constant (HLE trap); assay type: biochemical, human; settings: calculated from (Ki)·(kon)
Experimental: Determination of FXa dissociation rate constant The dissociation rate constant of the ecotin.cndot.FXa complex was measured using HLE to trap the free ecotin released from the complex. FXa (10 μM) was incubated for 1 h in TNCT buffer in the presence and absence of ecotin (12.5 μM) and diluted 1000-fold into TNCT buffer with and without HLE (500 nM). Aliquots (180 μl ) were removed at various times and initial rates of free FXa were measured at 405 nm with 20 μl of 5 mM Spectrozyme fXa. The product curve (free FXa versus time) was fit to equation 6; the value for koff was determined by nonlinear regression analysis.
To measure the dissociation rate constant of ecotin from FXa, the complex was diluted 1000-fold into buffer containing a 50-fold excess of HLE to trap the free ecotin and prevent reassociation. In the absence of HLE, reassociation of ecotin with FXa was so rapid that free FXa was barely detectible (FIG. 4B). Progress of dissociation was monitored as the increase in hydrolysis rate of Spectrozyme fXa resulting from the increasing free FXa with time. Because HLE prevented reassociation the rate of dissociation of the E·I complex is given by equation (5): [formula] which upon integration gives equation (6): […]
where [E] is the free [FXa] at any time t, [E.cndot.I]0 is the concentration of the complex at time zero, and koff is the first order dissociation rate constant. The time dependent E·I complex dissociation curve fit to equation (6) by nonlinear regression analysis is shown in FIG. 4B; the dissociation rate constant for ecotin tested is shown above in Table I.

HLE = settings: relative to α1-proteinase inhibitor with P1 Met, literature; cited from earlier work

| Substance | inhibition of FXa, in words (human FXa) | koff (values in parenthesis) (FXa) | decreased inhibition towards HLE (HLE) |
| --- | --- | --- | --- |
| M84E | significant inhibition | 0.00057 s⁻¹ | – |
| M84A | – | 0.00066 s⁻¹ | – |
| M84D | significant inhibition | – | – |
| α1-Proteinase inhibitor (Pittsburgh): naturally occuring mutant of the serpin α1-proteinase inhibitor which has Arg in the P1 position instead of Met | – | – | 10,000 fold |
